These results are taken from PMC9598822, “Increased Susceptibility of Mycobacterium tuberculosis to Ethionamide by Expressing PPs-Induced Rv0560c” (Antibiotics, 2022).

Structures are written as SMILES.

As usually defined, the Kd is the equilibrium constant for the complex coming apart.

For the assay, the target named is Rv2887 (Mycobacterium tuberculosis, UniProt P9WME9). The assay can be described thus: biochemical.
Rv2887, sequence (P9WME9 whole entry): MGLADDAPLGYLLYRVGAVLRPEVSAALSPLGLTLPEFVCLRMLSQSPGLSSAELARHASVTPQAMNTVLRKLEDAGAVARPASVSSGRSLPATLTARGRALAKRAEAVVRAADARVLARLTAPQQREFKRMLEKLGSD

For the compound `COC(=O)[C@@H]1CCC(=O)N1Cc1cc2ccc(OC)cc2c2cc(OC)c(OC)cc12` [PP1S], binding was put at a Kd of 274 µM.

As for `CCCCOc1ccc2cc(CN3C(=O)CC[C@H]3C(=O)OC)c3cc(OC)c(OC)cc3c2c1` [PP2S], the Kd was 250 µM.
